We go through 2 compounds from patent US5840940A, “Linoleoylamide based ceramide derivative and its use in cosmetic preparations for the treatment of dry skin” (Gist-Brocades B.V., priority 1994, dated 1998).

The structures appear in SMILES notation. “Also recorded” adds a separate entry of the source. A value given as a limit tells only on which side of the number the result lay.

One data set deals with healthy skin. As to the kind of experiment: Skin humidity of healthy skin (corneometer CM 820 PC), long-term effects of ceramide IIIA. Format: in vivo, female volunteers (human). To be noted: creams with 0.2% and 0.5% ceramide IIIA, twice daily, 28 days, compared to placebo. Here is the method: (§1) The corneometer CM 820 PC (Courage and Khazaka, Cologne, Germany) registers the electrical capacitance of the skin surface, which is a measure of the degree of moisture on the skin's surface. The capacitance is expressed digitally in arbitrary units (a.u.). Three measurements were performed on each test area and the mean was used to define hydration state of the stratum corneum.
(§2) The corneometer comprises a console and its sensor. The sensor is connected to the console by a special plug and coiled cable. The measurement is indicated on the 40×18 mm display screen on the console as a three-place number. The display also fulfils other information functions.
The sensor is rectangular in shape. Its special glass coated active front surface can be moved axially, and has a stroke of at least 3 mm. […]
(§3) The corneometer is completely automatic in operation. In order to carry out a measurement, the measuring head is pressed against the area of skin to be measured. […]
Measurements were carried out at a temperature of 22°±1° C. and a relative humidity of 60±10%. […] Initially untreated skin was measured in all three areas to find baseline values. […]
Measurements were evaluated during the treatment period on day 7, 14 and 28 two hours after the last daily application. The application was ceased on day 28 and further measurements were evaluated on day 30 and 32. […]

The subject of data set [1] is SDS-damaged skin. Kind of data set: Skin humidity of SDS-damaged skin (corneometer CM 820 PC). The format is in vivo, female volunteers (human). To be noted: creams with 0.2% and 0.5% ceramide IIIA, 14 days, compared to placebo. The protocol: as §1, §2
The sensor is rectangular in shape. Its special glass coated active front surface can be moved axially, and has a stroke of at least 3 mm. The measuring principle demands that the sensor surface be placed flat on the test object at a constant pressure. In order to ensure this as reproducibly as possible, the front surface of the measuring head has been designed to be very small (7×7 mm). […]
as §3
Measurements were evaluated during the treatment period on day 3, 7 and 14 one hour after the last daily application. […]

The nature of data set [2]: Solubility in emollients (visual inspection, maximum concentration before the solution turned cloudy). The format is physicochemical. Here is the method:
Increasing amounts of the compound were added to the solvent and stirred under nitrogen for 30 minutes at 45° C. After cooling to room temperature (22°±2° C.) the solutions were kept in the dark. After 1, 24 and 48 hours the solutions were visually inspected. The maximum concentration was determined before the solution turned cloudy, indicating the presence of insoluble crystals.

Data set [3] concerns SDS-damaged skin. As to the kind of experiment: Trans-epidermal water loss (TEWL) / barrier recovery of SDS-damaged skin (Tewameter). Format: in vivo, female volunteers (human). The protocol: Measurements of trans-epidermal water loss (TEWL) were performed with the Tewameter (Courage & Khazaka, Cologne, Germany). The Tewameter is a device for measurement of water evaporation on skin surfaces based on the diffusion principle discovered by A. Fick in 1885.
Five female volunteers at the age of 22-43 years with healthy skin were included in the test.
Measurements were carried out at a temperature of 22°±1° C. and a relative humidity of 60±10%. Subjects were accustomed to ambient conditions for 20 min prior to any measurement. The test was carried out on the volar forearms. The skin of the forearms was treated with a 5% aqueous solution of sodium lauryl sulphate (SDS) and an occlusive dressing applied. The dressing was removed 2 h later, and the regions gently washed with water and air-dried. After 30 min the measurements were done. Then the three test products were applied, one area remained untreated. The dose of application was about 2 mg/cm^2. In the following 14 days a home application in the morning and evening took place.
Measurements were evaluated during the treatment period on day 3, 7 and 14 one hour after the last daily application. Use of other cosmetic products was restricted on the test areas throughout the whole study.

Setting [4] is: isocetyl alcohol (Eutanol G16) and/or isostearic acid (Emersol).
Where [5] appears, read: isocetyl alcohol (Eutanol G16), stirred 45° C., room temperature (22°±2° C.), 1, 24 and 48 hours.

`CCCCC/C=C\C/C=C\CCCCCCCC(=O)N[C@@H](CO)[C@H](O)[C@H](O)CCCCCCCCCCCCCC` [Ceramide IIIA, N-linoleoylphytosphingosine]: the “Moisturizing effect (skin humidity)” value with healthy skin is reported as “clear moisture-retaining effect on healthy skin; also recorded: clear moisturizing effect compared to placebo”; in the data set on SDS-damaged skin [1] it was “increase of skin humidity of damaged skin compared to placebo”. Besides, the “Solubility, in words” value in data set [2] (emollient solvents, compared with saturated analogue and ceramide 1) is “solubilizes much better than its saturated analogue and than ceramide 1”. For the same compound, the figures for the “Solubility” value in data set [2] (setting [4]) and in data set [2] (setting [5]) were ≥ 1 % (w/v) and 5 % w/v, respectively. In the data set with SDS-damaged skin [3] (SDS-damaged skin, 14 days treatment, compared to placebo), the Trans-epidermal water loss result is listed as “a reduction of trans-epidermal water loss”. In addition, the “Restoration of the barrier layer” value in the data set with SDS-damaged skin [3] (surfactant (SDS)-pretreated skin, compared to placebo product) is recorded as “high capacity for restoration of the impaired lipid barrier of the skin; also recorded: quicker recovery of the barrier layer of SDS-treated skin than the placebo product”.
Consider `CCCCCCCCCCCCCCCCCC(=O)N[C@@H](CO)[C@H](O)[C@H](O)CCCCCCCCCCCCCC` [Ceramide III, N-stearoylphytosphingosine, reference compound], for which the entries for the “Solubility” value in data set [2] (setting [4]) and in data set [2] (setting [5]) were “less than 0.2 % (w/v)” and 0.16 % w/v, respectively.
